From paper PMC7035640 (Parasites & Vectors, 2020)
Where two headings read alike, the source gives them in different places.

Columns and labels:
[1] = tested on: L. donovani promastigotes; assay: Promastigote inhibition, flow cytometry (annexin V-FITC/PI); type: cell-based, Leishmania donovani; details: mean ± SD of three independent experiments
Description: (§1) Leishmania donovani strain MHOM/CN/IN/80/DD8 was used in this study. Leishmania promastigotes in the logarithmic phase were cultured at 28 °C in M199 medium at pH 7.4 (Sigma-Aldrich, Saint Louis, MO, USA), supplemented with 10% fetal bovine serum (Hyclone, Logan, UT, USA) and antibiotics (Pen-Strep, 100 U/ml penicillin-100 […] streptomycin sulphate).
Inhibition rate (%) was calculated as follows: Inhibition rate (%) = 100% − [(No. of live parasites in treated sample/No. of live parasites in untreated control) × 100%].
(§2) RAW 264.7 cells (5.0 × 10^5 cells/per well) were plated on round glass coverslips in 24-well plates and allowed to adhere to the slides for 24 h at 37 °C, 5% CO2, in PRMI 1640 medium (Gibco, Franklin, TN, USA) supplemented with 10% FBS (Gibco). Adherent macrophages were infected with L. donovani promastigotes, at a macrophages-to-parasite ratio of 1:20 for 6 h at 37 °C, 5% CO2. Next, the non-infected parasites were removed by washing three times with PBS, and the infected macrophages were incubated in 37 °C in 5% CO2 with PRMI 1640 medium and 10% FBS without drugs for 24 h. […] At 24 and 48 h, the glass coverslips were fixed in methanol (Solarbio, Beijing, China) and stained with Wright’s stain (Solarbio). The numbers of parasites were determined using light microscopy by counting at least 200 cells per slide. The results are expressed as means of three independent experiments.
(§3) All experiments were carried out in triplicates and repeated at least three times and the figures shown are representative of these experiments. IC50 were calculated according to a nonlinear regression using a log inhibitor-versus response equation with 95% confidence intervals in the GraphPad Prism 6.0 software. The data were analyzed using Student’s t-test for comparison of two groups and data values were expressed as the mean ± standard deviation (SD). Significant differences were determined and designated with asterisks as follows: *P < 0.05; **P < 0.01; ***P < 0.001 and ****P < 0.0001.

[2] = tested on: intracellular amastigotes of Leishmania donovani; assay: Intracellular amastigote inhibition in infected RAW 264.7 macrophages, Wright's stain and microscopy; type: cell-based; details: for Number of intracellular amastigotes compared to untreated (Wright's staining): CsA 10 μM, DHCsA-d 5 μM, SSG 9 μM; for IC50: intracellular amastigotes in RAW 264.7, mean ± SD
Description: as §1
as §2, with “experiments. The 50% inhibitory concentration (IC50) was calculated for promastigotes and intracellular amastigotes by fitting the values to a non-linear curve analysis.” for “experiments.”
as §3

[3] = tested on: murine macrophages (RAW 264.7); assay: Cytotoxicity assessment, Cell Counting Kit-8; type: cell-based, mouse
Description: Murine macrophages were cultivated in a 96-well plate using PRIM 1640 medium containing 10% FBS and maintained at 37 °C, 5% CO2, for 24 h. […] The cytotoxicity was measured at 24 and 48 h following a standard protocol.

[4] = tested on: L. donovani infected macrophages (RAW 264.7); assay: Cytokine quantification by ELISA in supernatants of L. donovani-infected RAW 264.7 macrophages; type: cell-based, mouse; details: 24 h, 48 h and 72 h; CsA 10 μM, DHCsA-d 5 μM, SSG 9 μM
Description: (§4) Mouse RAW 264.7 macrophages (5.0 × 10^5 cells/per well), adhered for 24 h at 37 °C, 5% CO2, in PRMI 1640 medium supplemented with 10% FBS were infected with promastigotes at a macrophages-to-parasite ratio of 1:20 for 6 h at 37 °C, 5% CO2, and subsequently the non-infected parasites were removed by washing three times with PBS. Infected macrophages were incubated in PRMI 1640 medium and 10% FBS at 37 °C, 5% CO2, without drugs for 24 h. […] The cells were further incubated for 3 days, and the medium supernatants were retrieved at 24, 48 and 72 h. Subsequently, the cytokines IL-12, IL-10, IL-4, IFN-γ and TNF-α were measured utilizing the BD OpitELA ELISA Kit (BD). NO and H2O2 concentrations in the supernatants were detected by nitric oxide and hydrogen peroxide assay kits (Beyotime), respectively.

[5] = tested on: L. donovani infected macrophages (RAW 264.7); assay: NO and H2O2 quantification in supernatants of L. donovani-infected RAW 264.7 macrophages; type: cell-based, mouse; details: 24 h, 48 h and 72 h; CsA 10 μM, DHCsA-d 5 μM, SSG 9 μM
Description: as §4

[6] = tested on: L. donovani cyclophilin A (LdCyPA); assay: Western blotting of LdCyPA expression in promastigotes; type: cell-based, Leishmania donovani; details: 48 h; CsA 16 μM, DHCsA-d 12 μM, SSG 20 μM; normalized to α-tubulin
Description: (§5) Polyclonal antibodies against LdCyPA were obtained to monitor protein expression. Representative peptides of LdCyPA were analyzed through two predictors for B cells, BEPIPRED and BCPRED12. […] Polyclonal antiserum was produced in New Zealand white rabbits. The rabbits were immunized with Freund’s adjuvant (Sigma-Aldrich), containing 1500 μg of LdCyPA peptide, on days 0, 15 and 30. The rabbits received three subcutaneous injections, the first in complete Freund’s adjuvant and later two in incomplete Freund’s adjuvant. Serum was obtained and antibody titers were estimated by ELISA on 25 and 42 days after the last injection.
(§6) These cells were then lysed with a protein lysis buffer supplemented with protease and phosphatase inhibitors and the protein concentration was determined by the BCA Kit (Beyotime). The extracted proteins were denatured for 5 min at 100 °C after adding appropriate amounts of loading buffer. Approximately 40 to 50 μg of proteins was loaded in each lane of a 12% polyacrylamide gel (Beyotime). […] The PVDF membranes were visualized with an enhanced chemiluminescence western blotting detection kit (Beyotime) and the protein bands were analyzed by densitometric studies using ImageJ software.

[7] = tested on: L. donovani cyclophilin A (LdCyPA); assay: Western blotting of LdCyPA expression in intracellular amastigotes; type: cell-based, Leishmania donovani; details: 48 h; CsA 10 μM, DHCsA-d 5 μM, SSG 9 μM; normalized to α-tubulin
Description: as §5, §6

[8] = tested on: cyclophilin A (CyPA); assay: Western blotting of CyPA expression in RAW 264.7 cells; type: cell-based, mouse; details: 48 h; CsA 10 μM, DHCsA-d 5 μM, SSG 9 μM; normalized to α-tubulin
Description: These cells were then lysed with a protein lysis buffer supplemented with protease and phosphatase inhibitors and the protein concentration was determined by the BCA Kit (Beyotime). The extracted proteins were denatured for 5 min at 100 °C after adding appropriate amounts of loading buffer. Approximately 40 to 50 μg of proteins was loaded in each lane of a 12% polyacrylamide gel (Beyotime). Proteins were separated at 120 V until the dye front reached the bottom of the gel, followed by transfer of the gels to polyvinylidene fluoride (PVDF) membranes (EMD, MA, USA) in transfer buffer (25 mM Tris-HCl, 192 mM glycine, 20% methanol, 0.02% SDS, pH 8.3) and run at 200 mA for 60 min. The membranes were then soaked in a blocking buffer (1 × PBS, 0.1% Tween 20) and supplemented with 1% bovine serum albumin (Sigma-Aldrich) for 2 h, before incubating overnight at 4 °C individually with LdCyPA polyclonal antibody, CyPA antibody (Affinity, Dublin, OH, USA) and α-tubulin antibody (Affinity) at appropriate dilutions. All the primary antibodies were used at a 1:4000 dilution and horseradish peroxidase-conjugated anti-rabbit immunoglobulin secondary antibodies (Affinity) were used at a 1:5000 dilution. The PVDF membranes were visualized with an enhanced chemiluminescence western blotting detection kit (Beyotime) and the protein bands were analyzed by densitometric studies using ImageJ software.

[9] = tested on: L. donovani promastigotes; assay: Transmission electron microscopy of promastigotes; type: cell-based, Leishmania donovani; details: 48 h; CsA 16 μM, DHCsA-d 12 μM, SSG 20 μM
Source text: (§7) Next, the cells were dehydrated in acetone and embedded in epoxy resin. Stained with lead citrate and observed under a Hitachi HT7700 transmission electron microscope.

[10] = tested on: intracellular amastigotes of L. donovani; assay: Transmission electron microscopy of intracellular amastigotes in RAW 264.7 macrophages; type: cell-based, Leishmania donovani; details: 48 h, DHCsA-d 5 μM; for Ultrastructure of intracellular amastigotes (mitochondria): CsA 10 μM, SSG 9 μM
Source text: as §7

[11] = 24 h, mean ± SD, read-out: Cytotoxicity (RAW 264.7) CC50
[12] = 48 h, mean ± SD, read-out: Cytotoxicity (RAW 264.7) CC50

| SMILES | IC50 ([1]; 24 h) | IC50 ([1]; 48 h) | Number of intracellular amastigotes compared to untreated (Wright's staining) ([2]; 24 h) | IC50 ([2]; 24 h) | Number of intracellular amastigotes compared to untreated (Wright's staining) ([2]; 48 h) | IC50 ([2]; 48 h) | CC50 [3, 11] | CC50 [3, 12] | IFN-γ level vs untreated infected cells [4] | IL-4 level vs untreated infected cells [4] | IL-10 level vs untreated infected cells [4] | IL-12 level vs untreated infected cells [4] | TNF-α level vs untreated infected cells [4] | H2O2 production vs untreated infected cells [5] | NO production vs untreated infected cells [5] | Expression of LdCyPA in promastigotes vs untreated [6] | Expression of LdCyPA in intracellular amastigotes vs untreated [7] | Expression of CyPA in RAW 264.7 cells vs untreated [8] | Ultrastructure of promastigote mitochondria [9] | Ultrastructure of intracellular amastigotes (mitochondria) [10] | further results |
| --- | --- | --- | --- | --- | --- | --- | --- | --- | --- | --- | --- | --- | --- | --- | --- | --- | --- | --- | --- | --- | --- |
| CCCC[C@@H](C)[C@@H](O)[C@H]1C(=O)N[C@@H](CC)C(=O)N(C)CC(=O)N(C)[C@@H](CC(C)C)C(=O)N[C@@H](C(C)C)C(=O)N(C)[C@@H](CC(C)C)C(=O)N[C@@H](C)C(=O)N[C@H](C)C(=O)N(C)[C@@H](CC(C)C)C(=O)N(C)[C@@H](CC(C)C)C(=O)N(C)[C@@H](C(C)C)C(=O)N1C [DHCsA-d, dihydrocyclosporin A] | 21.2 ± 1.2 µM | 12.1 ± 1.1 µM | reduced | 5.23 ± 2.1 µM | basically absent | 4.84 ± 0.4 µM | 7.98 ± 0.4 µM | 6.65 ± 0.7 µM | significant increases | significantly decreased | significantly decreased | significant increases | significant increases | significantly decreased | significantly decreased | no significant changes | no significant changes | no significant changes | completely disorganized | disintegrated | Share of intracellular amastigotes degraded in parasitophorous vacuoles [10]: Almost half |
| O.O.O.O.O.O.O.O.O.O=C([O-])[C@@H]1[O][Sb](=[O])([O][Sb]2(=[O])[O][C@H]([C@H](O)CO)[C@H](O)[C@H](C(=O)[O-])[O]2)[O][C@H]([C@H](O)CO)[C@@H]1O.[Na+].[Na+].[Na+] (stereo partly drawn) [SSG, Sodium stibogluconate] | 32.3 ± 1.6 µM | 20.2 ± 1.4 µM | reduced | 9.51 ± 0.5 µM | basically absent | 8.27 ± 0.1 µM | > 120 µM | > 120 µM | significant increases | significantly decreased | significantly decreased | significant increases | significant increases | significantly decreased | significantly decreased | no significant changes | no significant changes | no significant changes | completely disorganized | disintegrated | CC50 ([3]; RAW 264.7, time not given in the sentence, read-out: CC50): > 120 µM |
